Molecules are shown by their SMILES. Converted amounts (≈) assume the structure as drawn.

A short description of one data set: Solubility determination in PBS pH 7.4. Type of data set: physicochemical. Conditions: aqueous buffer, kinetic from dmso stock; PBS pH 7.4, 2 hours, 25° C.; the listed prodrug. The method, then: Stock solutions (10 mM DMSO, 30 μL) of each sample were placed into 96-well plate, along with 970 μL of PBS pH 7.4 were added into each vial of the cap-less solubility sample plate. The assay was performed in duplicate. A stir stick was added to each well and sealed using a molded PTFE/Silicone plug. Then the Solubility Sample plate was transferred to an Eppendorf Thermomixer Comfort plate shaker and shaken at 1100 RPM for 2 hours at 25° C. After completion the plugs and stir sticks were removed and the samples were transferred into a filter plate and filtered using a vacuum manifold. 5 μL aliquots of filtrate were taken and diluted with 5 μL DMSO and 490 μL of a 1:1 v/v mixture of H2O and acetonitrile. 200 μL of diluent was transferred to a new 96-well plate for LC-MS/MS analysis. The solution was analyzed and quantified against a standard of known concentration in DMSO using LC coupled with Mass spectral peak for identification and quantitation.
Consider `COc1cc(O)c(/C=N/C(C)C)c2c1CC(C(=O)Nc1cc([C@H]3CC[C@@H](OC(=O)NC(C)(C)C)C3)[nH]n1)C2` (single isomer, unassigned) [Compound 283a, (1R,3S)-3-(3-((*)-5-hydroxy-4-((E)-(isopropylimino)methyl)-7-methoxy-2,3-dihydro-1H-indene-2-carboxamido)-1H-pyrazol-5-yl)cyclopentyl tert-butylcarbamate], for which the solubility at 2 h turned out to be 149 µM (≈ 78.3 µg/mL). Regarding `COc1cc(O)c(/C=N/C(C)C)c2c1CC(C(=O)Nc1cc([C@H]3CC[C@@H](OC(=O)N(C)N(C)C)C3)n[nH]1)C2` (single isomer, unassigned) [Compound 284a, (1R,3S)-3-(5-((*)-5-hydroxy-4-((E)-(isopropylimino)methyl)-7-methoxy-2,3-dihydro-1H-indene-2-carboxamido)-1H-pyrazol-3-yl)cyclopentyl 1,2,2-trimethylhydrazine-1-carboxylate], the solubility at 2 h stood at 253 µM (≈ 133 µg/mL). On to `COc1cc(O)c(/C=N/C(C)C)c(OCC(=O)Nc2cc([C@H]3CC[C@@H](OC(=O)NC(C)C)C3)[nH]n2)c1` [Compound 64a, (1R,3S)-3-(3-(2-(3-hydroxy-2-((E)-(isopropylimino)methyl)-5-methoxyphenoxy)acetamido)-1H-pyrazol-5-yl)cyclopentyl isopropylcarbamate], for which the solubility at 2 h stood at 215 µM (≈ 108 µg/mL).

`CCC/N=C/c1c(O)cc(OC)cc1OCC(=O)Nc1cc([C@H]2CC[C@@H](OC(=O)NC(C)C)C2)[nH]n1` [Compound 64b, (1R,3S)-3-(3-(2-(3-hydroxy-5-methoxy-2-((E)-(propylimino)methyl)phenoxy)acetamido)-1H-pyrazol-5-yl)cyclopentyl isopropylcarbamate]: the solubility at 2 h worked out at 79 µM (≈ 39.6 µg/mL). With `CC/N=C/c1c(O)cc(OC)cc1OCC(=O)Nc1cc([C@H]2CC[C@@H](OC(=O)NC(C)C)C2)[nH]n1` [Compound 64c, (1R,3S)-3-(3-(2-(2-((E)-(ethylimino)methyl)-3-hydroxy-5-methoxyphenoxy)acetamido)-1H-pyrazol-5-yl)cyclopentyl isopropylcarbamate], the solubility at 2 h came to 246 µM (≈ 120 µg/mL). Turning to `CCCC/N=C/c1c(O)cc(OC)cc1OCC(=O)Nc1cc([C@H]2CC[C@@H](OC(=O)NC(C)C)C2)[nH]n1` [Compound 64d, (1R,3S)-3-(3-(2-(2-((E)-(butylimino)methyl)-3-hydroxy-5-methoxyphenoxy)acetamido)-1H-pyrazol-5-yl)cyclopentyl isopropylcarbamate], the solubility at 2 h was found to be 67 µM (≈ 34.5 µg/mL). As for `CCOC(=O)C/N=C/c1c(O)cc(OC)cc1OCC(=O)Nc1cc([C@H]2CC[C@@H](OC(=O)NC(C)C)C2)[nH]n1` [Compound 64p, Ethyl 2-(((E)-2-hydroxy-6-(2-((5-((1S,3R)-3-((isopropylcarbamoyl)oxy)cyclopentyl)-1H-pyrazol-3-yl)amino)-2-oxoethoxy)-4-methoxybenzylidene)amino)acetate], the solubility at 2 h is 4.8 µM (≈ 2.62 µg/mL). As for `COc1cc(O)c(/C=N/CCS(=O)(=O)O)c(OCC(=O)Nc2cc([C@H]3CC[C@@H](OC(=O)NC(C)C)C3)[nH]n2)c1` [Compound 64q, 2-(((E)-2-hydroxy-6-(2-((5-((1S,3R)-3-((isopropylcarbamoyl)oxy)cyclopentyl)-1H-pyrazol-3-yl)amino)-2-oxoethoxy)-4-methoxybenzylidene)amino)ethane-1-sulfonic acid], the solubility at 2 h was 243 µM (≈ 138 µg/mL).

As for `CC(C)/N=C/c1c(O)cccc1OCC(=O)Nc1cc([C@H]2CC[C@@H](OC(=O)NC3(C)CC3)C2)[nH]n1` [Compound 82a, (1R,3S)-3-(3-(2-(3-hydroxy-2-((E)-(isopropylimino)methyl)phenoxy)acetamido)-1H-pyrazol-5-yl)cyclopentyl (1-methylcyclopropyl)carbamate], the solubility at 2 h is 34 µM (≈ 16.4 µg/mL). In the case of `COc1cc(O)c(/C=N/C(C)C)c(OCC(=O)Nc2cc([C@H]3CC[C@@H](OC(=O)NC(C)(C)C)C3)[nH]n2)c1` [Compound 128a, (1R,3S)-3-(3-(2-(3-hydroxy-2-((E)-(isopropylimino)methyl)-5-methoxyphenoxy)acetamido)-1H-pyrazol-5-yl)cyclopentyl tert-butylcarbamate], the solubility at 2 h was determined as 191 µM (≈ 98.5 µg/mL). Same read-out and setting: the result for `Cc1cc(O)c(/C=N/C(C)C)c(OCC(=O)Nc2cc([C@H]3CC[C@@H](OC(=O)NC4(C)CC4)C3)[nH]n2)c1` [Compound 145a, (1R,3S)-3-(3-(2-(3-hydroxy-2-((E)-(isopropylimino)methyl)-5-methylphenoxy)acetamido)-1H-pyrazol-5-yl)cyclopentyl (1-methylcyclopropyl)carbamate] reads 68 µM (≈ 33.8 µg/mL); that for `COc1cc(O)c(/C=N/C(C)C)c(OCC(=O)Nc2cc([C@H]3CC[C@@H](OC(=O)N(C)N(C)C)C3)[nH]n2)c1` [Compound 172a, (1R,3S)-3-(3-(2-(3-hydroxy-2-((E)-(isopropylimino)methyl)-5-methoxyphenoxy)acetamido)-1H-pyrazol-5-yl)cyclopentyl 1,2,2-trimethylhydrazine-1-carboxylate], 227 µM (≈ 117 µg/mL). The same measure, in the same setting: the result for `CCCNC(=O)O[C@@H]1CC[C@H](c2cc(NC(=O)COc3cc(OC)cc(O)c3/C=N/C(C)C)n[nH]2)C1` [Compound 221a, (1R,3S)-3-(3-(2-(3-hydroxy-2-((E)-(isopropylimino)methyl)-5-methoxyphenoxy)acetamido)-1H-pyrazol-5-yl)cyclopentyl propylcarbamate] reads 156 µM (≈ 78.2 µg/mL). The same measure, in the same setting: the result for `COc1cc(O)c(/C=N/C(C)C)c(OCC(=O)Nc2cc([C@H]3C[C@@H](OC(=O)NC(C)C)C3)[nH]n2)c1` [Compound 223a, (1s,3s)-3-(3-(2-(3-hydroxy-2-((E)-(isopropylimino)methyl)-5-methoxyphenoxy)acetamido)-1H-pyrazol-5-yl)cyclobutyl isopropylcarbamate] reads 6.7 µM (≈ 3.27 µg/mL).

For the molecule `COc1cc(O)c(/C=N/C(C)C)c(OCC(=O)Nc2cc([C@H]3CC[C@@H](OC(=O)NC4(C)CC4)C3)[nH]n2)c1` [Compound 251a, (1R,3S)-3-(3-(2-(3-hydroxy-2-((E)-(isopropylimino)methyl)-5-methoxyphenoxy)acetamido)-1H-pyrazol-5-yl)cyclopentyl (1-methylcyclopropyl)carbamate], the solubility at 2 h was 50 µM (≈ 25.7 µg/mL). Take `CCC/N=C/c1c(O)cc(OC)cc1OCC(=O)Nc1cc([C@H]2CC[C@@H](OC(=O)NC3(C)CC3)C2)[nH]n1` [Compound 251b, (1R,3S)-3-(3-(2-(3-hydroxy-5-methoxy-2-((E)-(propylimino)methyl)phenoxy)acetamido)-1H-pyrazol-5-yl)cyclopentyl (1-methylcyclopropyl)carbamate]: the solubility at 2 h came out at 41 µM (≈ 21.1 µg/mL). The same measure, in the same setting: in the case of `CC/N=C/c1c(O)cc(OC)cc1OCC(=O)Nc1cc([C@H]2CC[C@@H](OC(=O)NC3(C)CC3)C2)[nH]n1` [Compound 251c, (1R,3S)-3-(3-(2-(2-((E)-(ethylimino)methyl)-3-hydroxy-5-methoxyphenoxy)acetamido)-1H-pyrazol-5-yl)cyclopentyl (1-methylcyclopropyl)carbamate] it was 48 µM (≈ 24 µg/mL).

The nature of the next data set: Oral bioavailability and pharmacokinetic analysis following oral administration in Nu/Nu mice. Conditions: male, in vivo. The method, then: Compound was administered via oral gavage in male Nu/Nu mice (n=3). The vehicle composition was 10% N-Methylpyrrolidone, 40% PEG300, 50% water (pH=4-8) at 6 mg-equivalent/mL to parent drug and a dose volume of 5 mL/Kg. Formulations were prepared freshly before dosing and stored at room temperature. Plasma samples were collected at the following time intervals: 0.5, 1, 2, 4, 8, 12, 24, 48, and 72 hours post dose (based on the start of oral dosing). Serial blood samples were collected (approximately 0.025 mL) via retro-orbital vein into K2EDTA. Whole blood was processed into plasma by centrifuge (4000 rpm for 5 minutes at 4° C.) followed by addition of 0.5 M ammonium formate (pH=3, 300% of plasma volume). Plasma samples were stored in a freezer at −75±15° C. until analysis. Plasma samples were analyzed after thawing and incubating for 1 h at 37° C. followed by protein precipitation with acetonitrile containing IS mixture (vortex 30 s, centrifugation at 4° C., 400 rpm for 15 min) and the resulting supernatant was further diluted with water before injecting onto Shimadzu 8060 LC-MS/MS system for analysis. Unknown plasma samples concentration was calibrated using standard range of 0.2 to 1 000 ng/mL for parent.
Bioavailability (% F) was calculated by comparing observed plasma concentrations of parent drug after oral administration of prodrug or parent drug to observed plasma concentrations via IV (intravenous) administration of parent drug.
As to `COc1cc(O)c(/C=N/C(C)C)c(OCC(=O)Nc2cc([C@H]3CC[C@@H](OC(=O)N4C5COCC4C5)C3)[nH]n2)c1` [Compound 231a, (1R,3S)-3-(3-(2-(3-hydroxy-2-((E)-(isopropylimino)methyl)-5-methoxyphenoxy)acetamido)-1H-pyrazol-5-yl)cyclopentyl 3-oxa-6-azabicyclo[3.1.1]heptane-6-carboxylate], the “Prodrug Mouse % F” value was 2.8%. Turning to `COc1cc(O)c(/C=N/C(C)C)c(OCC(=O)Nc2cc([C@H]3CC[C@@H](OC(=O)N4CC5CC(C4)O5)C3)[nH]n2)c1` [Compound 235a, (1R,3S)-3-(3-(2-(3-hydroxy-2-((E)-(isopropylimino)methyl)-5-methoxyphenoxy)acetamido)-1H-pyrazol-5-yl)cyclopentyl 6-oxa-3-azabicyclo[3.1.1]heptane-3-carboxylate], the “Prodrug Mouse % F” value worked out at 3.2%.

The same data set, now with this note: male, mouse, in vivo, 6 mg.
On to `COc1cc(O)c(/C=N/C(C)C)c(OCC(=O)Nc2cc([C@H]3CC[C@@H](OC(=O)N4C5COCC4C5)C3)[nH]n2)c1` [Compound 231a, (1R,3S)-3-(3-(2-(3-hydroxy-2-((E)-(isopropylimino)methyl)-5-methoxyphenoxy)acetamido)-1H-pyrazol-5-yl)cyclopentyl 3-oxa-6-azabicyclo[3.1.1]heptane-6-carboxylate], for which the “Prodrug AUCinf” value was found to be 12.9 µM·h. As to `COc1cc(O)c(/C=N/C(C)C)c(OCC(=O)Nc2cc([C@H]3CC[C@@H](OC(=O)N4CC5CC(C4)O5)C3)[nH]n2)c1` [Compound 235a, (1R,3S)-3-(3-(2-(3-hydroxy-2-((E)-(isopropylimino)methyl)-5-methoxyphenoxy)acetamido)-1H-pyrazol-5-yl)cyclopentyl 6-oxa-3-azabicyclo[3.1.1]heptane-3-carboxylate], the “Prodrug AUCinf” value was determined as 15.2 µM·h.

A word on the solubility: it is how much of the substance goes into solution per volume.

The values above are taken from patent US20250289789A1, “REVERSIBLE LYSINE COVALENT MODIFIERS OF CDK2 AND USES THEREOF” (Terremoto Biosciences, Inc., priority 2023, published 2025).
